# Where a name gives a salt, the structure may show the parent alone. Read-outs that look alike come from different tables or passages of the source.
# How the values were obtained:
# KRAS^G12D [1] = molecular target: T1, KRAS^G12D (Homo sapiens (Human), UniProt P01116, G12D); test: SOS1-mediated binding of KRAS^G12D to effector protein c-Raf (TR-FRET); format: biochemical; details: KRAS G12D/c-Raf/SOS1/GTP, read-out: IC50 Values of Compounds for KRAS^G12D Activity
# Procedure: Assay example 1: Assay of SOS1-mediated binding ability of KRAS^G12D to effector protein c-Raf
# 2. Assay steps 2.1 Preparation of 1×enzymatic reaction buffer:
# 2.2 Preparation of KRAS G12D enzyme (2×):
# 2.3 Preparation of substrate and antibody mixture (2×):
# 1) The compounds were serially diluted 5-fold with DMSO in a dilution plate to a final starting concentration of 10 μM.
# 2) The compounds were transferred with Echo to a 384 reaction plate with […] per well.
# 3) 5 μL of KRAS G12D enzyme was added to each well of the reaction plate.
# 4) The plates were sealed with a sealing film and centrifuged at 1000 g for 30 seconds, and then incubated at room temperature for 15 minutes.
# 5) 2× cRaf/SOS1/GTP/MAb Anti 6HIS-d2/MAb Anti GST-Eu mixture was prepared with 1× enzyme reaction buffer, and 5 μL of the mixture was added to the reaction plate.
# 6) The mixture was centrifuged at 1000g for 30 seconds and reacted at room temperature for 2 hours.
# 7) The fluorescence signals at 615 nm (Cryptate) and 665 nm (XL665) were read with a BMG microplate reader.
# 8) Data analysis was performed using Graphpad 7.0 software to give IC50.
# [2] = Pharmacokinetic study in vivo in mice; details: mouse, plasma, male C57BL/6J mice; for AUC(0-t): read-out: area under plasma concentration-time curve AUC0-last
# Procedure: Male C57BL/6J mice aged 7 to 10 weeks were selected, and administered candidate compound solutions intravenously or orally. Whole blood was collected for a certain period of time. Plasma was prepared. Drug concentration was analyzed by LC-MS/MS method. Pharmacokinetic parameters were calculated using Certara WinNonlin software (Certara Company, USA).
# [3] = test system: phospho-ERK in GP2D cells; test: Inhibition of phospho-ERK in GP2D cells (Odyssey in-cell imaging); format: cell-based; details: Homo sapiens, 1 hour compound, EGF stimulation, read-out: Inhibitory effects on intracellular phospho-ERK IC50
# Procedure: Assay example 3. Inhibitory effect of compounds on phospho-ERK in GP2D cells
# In this assay, the inhibitory effect of the assayed compounds on the phosphorylation of ERK protein downstream of the KRAS […] signaling pathway in human colon cancer GP2D cells was analyzed.
# 2. Reagents, consumables and instruments
# 3.Assay process 1. Cell culture
# 1) GP2D cells were cultured in a cell culture 75 flask at 37° C., 5% CO2, and the medium was DMEM medium (added with 10% FBS and 1% P/S).
# 2) After cultivation for 2 days, the medium was removed and the sterile PBS buffer was used to wash once.
# 3) 3 mL of trypsin was added and the cells were digested in a 37° C. incubator for 2 to 3 minutes until cells fell off.
# 4) 9 mL of fresh culture medium was added to neutralize the digestion; the cells were aspirated into a centrifuge tube and centrifuged at 1000 rpm at room temperature for 5 minutes.
# 5) The supernatant was removed, and 3 mL of fresh culture medium was added to resuspend the cells; the cells were counted by a cell counter.
# 1) 7000 cells per well were plated in a 384-cell culture plate with 40 μL of culture medium, and cultured overnight in a 37° C. and 5% CO2 incubator.
# 2) The Echo655 instrument was used to add 40 nL of serially diluted compounds (the initial concentration of the compound was 1000 nM, and the compound was serially diluted 3-fold. […]
# [4] = test system: KRAS^G12D mutated AsPC-1 cells; test: Anti-cell proliferation in tumor cell line AsPC-1 (CellTiter-Glo 3D); format: cell-based; details: Homo sapiens, ASPC1; AsPC-1, 120 hours, 3D culture; read-out: Anti-proliferation Activity against KRAS^G12D Mutated AsPC-1 Cells IC50
# From the text: Assay example 2. Anti-cell proliferation effects of compounds in tumor cell line AsPC-1 1. Research purpose
# In this assay, the inhibitory effects of compounds on cell proliferation were studied by detecting the effects of compounds on the in vitro cell activity in the tumor cell line AsPC-1.
# Ultra Low Cluster-96 well plate (Corning-7007)
# Greiner CELLSTAR 96-well plate (#655090)
# Promega CellTiter-Glo 3D Luminescence Cell Viability Detection Kit (Promega-G9683)
# 2104-10 En Vision Plate Reader, PerkinElmer
# RPMI 1640, DMEM, PBS (phosphate buffered solution), FBS (fetal bovine serum), Antibiotic-antimycotic, L-glutamine, DMSO (dimethyl sulfoxide)
# 3. Assay methods and steps Cell culture
# The tumor cell line was cultured in a 37° C., 5% CO2 incubator according to the culture conditions indicated in the culture method. […]
# Cells were stained with trypan blue and viable cells were counted. […]
# CellTiter-Glo luminescence assay for cell viability detection (day 5)
# The following steps were performed according to the instructions of the Promega CellTiter-Glo 3D Luminescence Cell Viability Dectection Kit (Promega #G9683). […]
# The solution in the ULA culture plate was then transferred to a black bottom culture plate (#655090) and left at room temperature for 25 minutes to stabilize the luminescence signal.
# Luminescence signals were detected with a 2104 EnVision plate reader. […]
# KRAS^G12D [5] = molecular target: T1, KRAS^G12D; test: Activity of inhibiting KRAS^G12D: binding of KRAS to GTP (TR-FRET, SOS/GTP exchange); format: biochemical; details: Bodipy GDP/SOS/GTP
# T1 sequence (P01116-2 other isoform, or with tags, fused parts or gaps G12D): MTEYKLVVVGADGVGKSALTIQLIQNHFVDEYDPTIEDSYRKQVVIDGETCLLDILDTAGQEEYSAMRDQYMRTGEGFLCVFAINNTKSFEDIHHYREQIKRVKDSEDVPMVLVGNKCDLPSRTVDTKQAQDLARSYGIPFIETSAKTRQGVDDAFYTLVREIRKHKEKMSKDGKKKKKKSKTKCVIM
smiles,measurement,setting,value
C#Cc1c(F)ccc2cc(N)cc(-c3c(Cl)cc4c(N5CC6C=CC(C5)N6)nc(OC[C@@]56CCCN5C[C@H](F)C6)nc4c3F)c12 [Compound 001B],IC50,KRAS^G12D [1],18.9 nM
C#Cc1c(F)ccc2cc(N)cc(-c3c(F)cc4c(N5CC6C=CC(C5)N6)nc(OC[C@@]56CCCN5C[C@H](F)C6)nc4c3F)c12 [Compound 002A],IC50,KRAS^G12D [1],23.7 nM
same,Vd,"[2]; intravenous administration, dose 1.74-1.94 mg/kg, read-out: apparent volume of distribution Vdss",56.3 L/kg
same,AUC(0-t),"[2]; intravenous administration, dose 1.74-1.94 mg/kg",0.267 µM·h
same,clearance,"[2]; intravenous administration, dose 1.74-1.94 mg/kg, read-out: clearance rate CL",189 mL/min/kg
same,half-life,"[2]; intravenous administration, dose 1.74-1.94 mg/kg, read-out: half-life T1/2 (converted)",427 min
same,AUC(0-t),"[2]; oral administration, dose 28.2-51.0 mg/kg",0.637 µM·h
same,bioavailability,"[2]; oral administration, dose 28.2-51.0 mg/kg, read-out: bioavailability F",16.1%
same,Cmax,"[2]; oral administration, dose 28.2-51.0 mg/kg, read-out: peak concentration Cmax",345 nM
same,Tmax,"[2]; oral administration, dose 28.2-51.0 mg/kg, read-out: peak time Tmax",1.13 h
same,IC50,[3],0.15 nM
same,IC50,[4],17.7 nM
C#Cc1c(F)ccc2cc(N)cc(-c3ccc4c(N5CC6C=CC(C5)N6)nc(OC[C@@]56CCCN5C[C@H](F)C6)nc4c3F)c12 [Compound 003],IC50,KRAS^G12D [1],20.4 nM
C#Cc1c(F)ccc2cc(O)cc(-c3ccc4c(N5CC6C=CC(C5)N6)nc(OC[C@@]56CCCN5C[C@H](F)C6)nc4c3F)c12 [Compound 005],IC50,KRAS^G12D [1],12.3 nM
C#Cc1c(F)ccc2cc(N)cc(-c3cc(OC)c4c(N5CC6C=CC(C5)N6)nc(OC[C@@]56CCCN5C[C@H](F)C6)nc4c3F)c12 [Compound 006],IC50,KRAS^G12D [1],37.4 nM
C#Cc1c(F)ccc2cc(N)cc(-c3c(F)cc4c(N5CC6C=CC(C5)N6)nc(OC[C@]56CCCN5CC(=C)C6)nc4c3F)c12 [Compound 016B],IC50,[4],14.2 nM
Oc1cc(-c2c(Cl)cc3c(N4C5CCC4CNC5)nc(OC[C@@]45CCCN4C[C@H](F)C5)nc3c2F)c2ccccc2c1 [Compound 029 hydrochloride],IC50,KRAS^G12D [5],38.6 nM

# From patent publication US20240383924A1, “BENZOPYRIMIDINE COMPOUNDS AND USE THEREOF” (priority 2022, published 2024)
